Assay results taken from a melting point compilation (Tetko et al.).

SMILES | melting point
Nc1nnc(-c2ccccc2)c(Nc2ccc(Cl)cc2)n1 | 297 °C
O=Cc1cc(F)ccc1[N+](=O)[O-] | 94.5 °C
CNC1(c2ccccc2Cl)CCCCC1=O (configuration not stated) | 92.5 °C
C=C(C)C1CC=C(C)C(=NO)C1 (configuration not stated) | 71.5 °C
Cc1ccccc1/C=C(\C#N)c1nc2ccccc2n1C | 269 °C
COc1ccc(NC(=O)/C(C)=N\NC(N)=O)cc1 | 226 to 228 °C
CCC(N)Cc1c[nH]c2ccccc12 (configuration not stated) | 97 °C
O=S(=O)(Oc1ccc(Cl)cc1Cl)c1ccccc1 | 45.5 °C
O=Cc1cccc2c([N+](=O)[O-])cccc12 | 136 °C
CNc1ccc(NC)c2c1C(=O)c1ccccc1C2=O | 220 °C
CC(=O)OCC1OC(c2nn[nH]n2)C(N2C(=O)c3ccccc3C2=O)C(OC(C)=O)C1OC(C)=O (configuration not stated) | 98 °C
OCC1OC=CC(O)C1O (configuration not stated) | 99 to 103 °C
Cc1cc([N+](=O)[O-])cc(Br)c1N | 177 to 183 °C
NCc1cc(C(F)(F)F)ccc1N1CCOCC1 | 31 to 34 °C
CCCCCCCC(=O)OCCCC | -42.9 °C
Nc1ccccc1C(=O)c1ccccc1 | 107 °C
CC(=CC=C(C)C(=O)O)C(=O)O | 221 °C
O=C1c2ccccc2C(=O)c2c([N+](=O)[O-])ccc(O)c21 | 273 to 275 °C
COC(=O)[C@H](CSSC[C@@H](C(=O)OC)N1C(=O)[C@@H]2[C@H](C1=O)[C@@H]1C=C[C@H]2C1)N1C(=O)[C@@H]2[C@H](C1=O)[C@@H]1C=C[C@H]2C1 | 100 °C
Cc1nc(-c2cccc(CBr)c2)no1 | 71 to 72 °C
S=c1ssc(S)c1-c1ccccc1 | 153 to 155 °C
c1ccc(-c2cccs2)cc1 | 34 to 36 °C
CC(=O)OC1CCC2C3CCC4CC(C(C)=O)CCC4(C)C3CCC12C (configuration not stated) | 140 °C
Cc1c(C(=O)O)cccc1[N+](=O)[O-] | 184 °C
Cc1cccc2c1sc1c(C)cccc12 | 147 to 153 °C
O=C(O)c1c(Cl)c(Cl)c(Cl)c(Cl)c1Cl | 209 °C

SMILES | melting point
Nc1cc(Br)cnc1Cl | 131 °C
COc1cc(CC2c3cc(OC)c(OC)cc3CCN2C)c(Oc2cc3c(cc2OC)-c2c(OC)c(OC)cc4c2C(C3)N(C)CC4)cc1OC (configuration not stated) | 160 °C
COc1cc2c(cc1OCc1ccccc1)C(C)NCC2 (configuration not stated) | 91 °C
Cc1ccccc1NC(=S)c1cc(C(C)(C)C)c(O)c(C(C)(C)C)c1 | 257 to 258 °C
Cn1ncc2c(NCCNC3=CC(=O)c4ccccc4C3=O)ncnc21 | 257 °C
O=S(=O)(Cl)c1c(Cl)cccc1Cl | 53 °C
NC(=S)Nc1ccc(C(=O)O)cc1 | 255 °C
COc1ccc(S(N)(=O)=O)cc1 | 112 °C
COc1cccc(-c2cccc(OC)c2)c1 | 36 °C
NNc1ccc(C(=O)O)cc1 | 205 °C
Cn1ccc(C#N)n1 | 41.5 to 45 °C
N[C@@H](Cc1ccc(F)cc1)C(=O)O | 253 °C
CC(=O)c1c(O)cccc1OCCC(C)C | 25 to 27 °C
CC(CC1CC(=O)c2c3c(c4ccccc4c2O1)O[C@@H]1CC(=O)O[C@H]31)O[Si](C)(C)C(C)(C)C (some centres not stated) | 131 to 133 °C
CCCCCCCCCC(=O)OC1CCC2C3CCC4=CC(=O)CCC4C3CCC12C (configuration not stated) | 118 °C
CCCCCCC(O)C1C2=C(CC(C(O)C3CC=CC(=O)O3)CC3=C(C(=O)OC3=O)C1O)C(O)OC2=O (configuration not stated) | 214 °C
O=C1NC(=O)C2(c3ccc(Cl)cc3)c3ccccc3CCN12 (configuration not stated) | 215 to 216 °C
CC(=N[Si](C)(C)C)O[Si](C)(C)C | 24 °C
C=CCOC1=NS(=O)(=O)c2ccccc21 | 138 °C
CCCC(N)P(=O)(O)O (configuration not stated) | 276 to 281 °C
CCOc1nc(NC)nc(NC(=O)NS(=O)(=O)c2ccccc2C(=O)OC)n1 | 194 °C
O=C=Nc1ccc2c(c1)OCCOCCOCCOCCO2 | 35 to 39 °C
Nc1c(Br)cccc1C(=O)O | 173 to 175 °C
C=C1CC2C3CCC4=CC(=O)C=CC4(C)C3C(O)CC2(C)C1(O)C(=O)CO (configuration not stated) | 234 °C
CCCCCCCCCC(=O)CCCCCCCCC | 65.5 °C
C/C=C/C(=O)NNc1ccccc1 | 190 °C

The remaining lines, values ahead:

melting point | SMILES
54 °C | CCOC(=O)c1ccc(C#N)cc1
160 °C | CN(C)CCCOc1nn(Cc2ccccc2)c2ccccc12
201 °C | CC(=O)OC1C(O)C2=C(C(=O)C(OC(C)=O)C3(CC3C)C2=O)C2(C)CCC(=O)C(C)(C)C12 (configuration not stated)
56 °C | C[Si](C)(C)C1=CC2(CCCCC2)CC1=O
135 °C | CC(C)(C)c1cc(O)c(O)c(O)c1
149 to 150 °C | CCOC(=O)c1c(-c2ccccc2)csc1NC(=O)c1ccc(Cl)cc1Cl
131 °C | NC(=S)c1ccc(F)cc1F
116 °C | Nc1ccc(C=Cc2ccccc2)c(N)c1
90 °C | CCCC1Nn2c(nnc2-c2ccc(OCC)cc2)S1 (configuration not stated)
188 °C | NS(=O)(=O)c1ccccc1OC(F)(F)F
249 °C | CC(=O)Nc1cccc2c1ccc1nc(-c3ccccc3)c(-c3ccccc3)nc12
122 °C | Clc1cc(Cl)c2nsnc2c1Cl
129 to 131 °C | NC(=S)Cc1ccc(Cl)cc1
115 to 117 °C | CC(=O)Nc1ccc(OC(F)(F)F)cc1
133 °C | COc1ccc(/C=C2\SC(=S)N(CN3CCOCC3)C2=O)cc1
-3 °C | CCCCCCc1ccc2ccccc2c1
241 °C | CC1=NN(c2ccccc2)C(=O)C1C(c1ccc(O)cc1)C1C(=O)N(c2ccccc2)N=C1C (configuration not stated)
37 °C | C=CCNC(=O)OC(C)(C)C

melting point | SMILES
100 °C | COC(=O)C1(C(=O)OC)Cc2c(C)cccc2C(=O)O1
165 °C | CC(O)=NNC(N)=O
179 °C | COc1ccc(C(=O)c2nn3c(nc(=O)c4ccccc43)s2)cc1
196 °C | CN(C)c1ccc(C(C=C2C=Cc3ccccc3N2N=O)c2ccccc2)cc1 (configuration not stated)
208 to 210 °C | CCOC(=O)c1csc(NC(=O)CCl)n1
300 °C | O=C(O)c1ccc2cc(C(=O)O)ccc2c1
37 °C | Nc1cc[nH]n1
136 °C | CCC1(c2ccccc2)NC(=O)N(C)C1=O (configuration not stated)
89 to 93 °C | CCOC(C)=C(C#N)C#N
-50.9 °C | CCCCCCCOC(=O)CC
139 °C | CC1=CC(C(=O)O)c2ccccc21 (configuration not stated)
131 °C | COC1OC(COC(C)=O)C(OC2OC(COC(C)=O)C(OC(C)=O)C(OC(C)=O)C2OC(C)=O)C(OC(C)=O)C1OC(C)=O (configuration not stated)
230 °C | Cc1ccc(NN=C2C(=O)NN=C2C(F)(F)F)cc1
210 °C | CC(C)(C)c1cc(C(C)(C)C)c2oc3c(C(C)(C)C)cc(C(C)(C)C)c(=O)c-3nc2c1
127 to 128 °C | Nc1cccnc1N1CCOCC1
90 to 90.5 °C | CC1=CC2OC1C(Cl)(Cl)C(=O)C2(Cl)Cl (configuration not stated)
81 °C | O=C(O)CCCCCCC(=O)c1ccccc1
